Results published in US9102629B2, “Polymorphic forms of 4-phenylamine quinazoline derivative, the preparation method and uses thereof” (priority 2008, dated 2015).

Tests used:
[1] = Thermal stability test (storage at 60° C.); format: physicochemical; settings: p-Toluenesulfonate; for thermal stability: 60° C., one month, in words; for Purity (%): stored at 60° C.
Text: The purity of Form A was detected at 0, 10 and 30 days, which was based to deduce the thermal stability of Form A. The thermal stability of Form B and Form C were also deduced by this method.

[2] = Light stability test (illumination 4500 lx±500 lx); format: physicochemical; settings: p-Toluenesulfonate; for light stability: 4500 lx±500 lx, one month, in words; for Purity (%): illumination 4500 lx±500 lx
Text: The purity of Form A was detected at 0, 10 and 30 days, which was based to deduce to the light stability of Form A. The light stability of Form B and Form C were also deduced by this method.

[3] = Hygroscopicity test (high moisture environment of 92.5%); format: physicochemical; settings: p-Toluenesulfonate; for stability under the environment of high moisture: 92.5% moisture, one month, in words; for Purity (%): high moisture environment of 92.5%
Text: The purity of Form A was detected at 0, 10 and 30 days, which was based to deduce the hygroscopicity of Form A. The hygroscopicities of Form B and Form C were also deduced by this method.

[4] = tested on: human epidermatoid squamous cancer A431; assay: Tumor-inhibitory effect on A431 transplanted to nude mouse; format: in vivo, BALB/cA nude mouse; settings: for Weight of animals (g) (without tumor) / Tumor inhibition rate % / Weight of tumors (g) x ± SD: 13 days; for Tumor inhibition rate %: by tumor weight; for Weight of tumors (g) x ± SD: killed 23 days after inoculation
Protocol: A well-developed solid tumor A431 was selected and cut into several uniform bits of a size of 2-3 mm under sterile conditions, with one bit being inoculated subcutaneously to the right armpit of each of the BALB/cA nude mice using trocar. 7 days after inoculation, the mice were grouped randomly and were intragastrically administrated through mouth for 13 days continuously. The long axis (a) and the short axis (b) of the tumors were measured with a vernier caliper every 4 days. According to the formula V=ab^2/2, the tumor volume (mm^3) could be calculated. The tested animals were neck-off killed 23 days after the inoculation, and anatomized to obtain the tumors. The tumors were weighed, and the tumor inhibition rate was calculated.

[5] = tested on: human ovarian cancer SKOV-3; assay: Tumor-inhibitory effect on SKOV-3 transplanted to nude mouse; format: in vivo, BALB/cA nude mouse; settings: for relative tumor proliferation rate T/C: SKOV-3, 3 weeks, p-Toluenesulfonate; for relative tumor proliferation rate T/C / tumor inhibitory effects: 100 mg/kg ig twice a day; for tumor inhibitory effects: summary in words for SKOV-3, Calu-3 and A549 models
Protocol: A tumor SKOV-3 in vigorous growth period was selected and cut into several uniform bits of a size of about 1.5 mm^3, which was inoculated subcutaneously to the right armpit of the BALB/cA nude mice using trocar under sterile conditions. The diameters of the transplanted tumors of nude mice were measured with a vernier caliper. The animals were grouped randomly when the tumors grew to a size of 80-100 mm^3. The tested animal group were intragastrically administrated through mouth as mentioned above once a day for 3 weeks continuously. The positive control drug MMC (Mitomycin) was intravenously administered once on the first day with a dose of 5 mg/kg. The negative control group were administered with 0.5% CMC-Na (Carboxymethyl Cellulose Sodium) with a dose of 0.2 mL/per mouse. The long axis (a) and the short axis (b) of the tumors were measured twice every week and the nude mice were weighed at the same time. According to the formula V=ab^2/2, the tumor volume (mm^3) could be calculated, based on which the relative tumor volume (RTV) was calculated (Calculation Formula: RTV=Vt/V0, wherein V0 represents the tumor volume measured at the grouping time of administration, and Vt represents the tumor volume measured each time). The relative tumor proliferation rate T/C (%) was chosen as the index to evaluate the anti-tumor activity, which can be calculated according to the following formula: T/C (%)=(TRTV/CRTV)×100
TRTV: RTV of the treated group; CRTV: RTV of the negative control group
V0 represents the tumor volume before the administration, and V21 represents the tumor volume after 3 weeks of continuous administration.
(§1) According to the experimental method mentioned above, the tumor-bearing nude mice, into which the human ovarian cancer SKOV-3, the human lung cancer Calu-3, and the human lung cancer A549 were transplanted respectively, were intragastrically administrated with Form B (100 mg/kg) of the present invention through mouth twice a day for 3 weeks continuously.
as §1, with “SKQV-3,” for “SKOV-3,”, “C” for “B”

[6] = Toxicity test of long-term administration; format: in vivo; settings: SD rats, ig, 20, 50, 100, 500 or 800 mg/(kg·day), four weeks
Protocol: 80 healthy SD rats, male and weighed 200˜250 g, were grouped into 16 groups randomly, and were each intragastrically administered with Form A, B or C of the p-toluenesulfonate of the compound of formula (I) or a blank solvent (Five test groups with the dose of 20, 50, 100, 500 or 800 mg/(kg·day) and a solvent control group were set).

human lung cancer Calu-3 = assay: Tumor-inhibitory effect on Calu-3 transplanted to nude mouse; format: in vivo, nude mice; settings: 100 mg/kg ig twice a day, 3 weeks, p-Toluenesulfonate
Protocol: (§2) The diameters of the transplanted tumors of nude mice were measured with a vernier caliper. The animals were grouped randomly when the tumors grew to a size of 80-100 mm^3. […] The positive control drug MMC (Mitomycin) was intravenously administered once on the first day with a dose of 5 mg/kg. The negative control group were administered with 0.5% CMC-Na (Carboxymethyl Cellulose Sodium) with a dose of 0.2 mL/per mouse. The long axis (a) and the short axis (b) of the tumors were measured twice every week and the nude mice were weighed at the same time. […] RTV=Vt/V0, wherein V0 represents the tumor volume measured at the grouping time of administration, and Vt represents the tumor volume measured each time). The relative tumor proliferation rate T/C (%) was chosen as the index to evaluate the anti-tumor activity, which can be calculated according to the following formula: T/C (%)=(TRTV/CRTV)×100 TRTV: RTV of the treated group; CRTV: RTV of the negative control group The standard for evaluating the effectiveness: […]

human lung cancer A549 = assay: Tumor-inhibitory effect on A549 transplanted to nude mouse; format: in vivo, nude mice; settings: 100 mg/kg ig twice a day, 3 weeks, p-Toluenesulfonate
Protocol: as §2

[7] = Drug absorption in SD rat, intragastric administration; format: in vivo, SD rat (Sprague Dawley rat); settings: ig, 30 mg/kg, plasma, p-Toluenesulfonate
Protocol: Intragastric administration (ig): 16 healthy SD rats, male, weighed 200˜250 g, and grouped into 4 groups randomly, were each administered intragastrically with a drug:the compound (21.68 mg/kg) prepared according to Example 1, Form A, B or C of p-toluenesulfonate of the compound (30 mg/kg). The blood samples were collected at 0.5, 1.0, 1.5, 2.0, 3.0, 5.0, 7.0, 9.0, 12 and 24 hours after administration, which were then isolated to prepare the plasma. The concentration of the drug in the plasma was determined by means of liquid chromatography/mass spectrometry, and the concentration-time curve was obtained.

[8] = tested on: human epidermoid squamous cancer cell A431; settings: from WO 2007/082434; in words; cited from earlier work
[9] = tested on: human breast cancer cell BT-474; settings: from WO 2007/082434; in words; cited from earlier work
[10] = tested on: human epidermoid squamous cancer cell A431; settings: from WO 2007/082434; in words; cited from earlier work; remark: listed apart in the source
Erb-B2 kinase = Erb-B2 kinase (Homo sapiens, UniProt P04626); settings: in vitro; from WO 2007/082434; in words; cited from earlier work
Erb-B2 kinase, sequence (P04626 23-1255): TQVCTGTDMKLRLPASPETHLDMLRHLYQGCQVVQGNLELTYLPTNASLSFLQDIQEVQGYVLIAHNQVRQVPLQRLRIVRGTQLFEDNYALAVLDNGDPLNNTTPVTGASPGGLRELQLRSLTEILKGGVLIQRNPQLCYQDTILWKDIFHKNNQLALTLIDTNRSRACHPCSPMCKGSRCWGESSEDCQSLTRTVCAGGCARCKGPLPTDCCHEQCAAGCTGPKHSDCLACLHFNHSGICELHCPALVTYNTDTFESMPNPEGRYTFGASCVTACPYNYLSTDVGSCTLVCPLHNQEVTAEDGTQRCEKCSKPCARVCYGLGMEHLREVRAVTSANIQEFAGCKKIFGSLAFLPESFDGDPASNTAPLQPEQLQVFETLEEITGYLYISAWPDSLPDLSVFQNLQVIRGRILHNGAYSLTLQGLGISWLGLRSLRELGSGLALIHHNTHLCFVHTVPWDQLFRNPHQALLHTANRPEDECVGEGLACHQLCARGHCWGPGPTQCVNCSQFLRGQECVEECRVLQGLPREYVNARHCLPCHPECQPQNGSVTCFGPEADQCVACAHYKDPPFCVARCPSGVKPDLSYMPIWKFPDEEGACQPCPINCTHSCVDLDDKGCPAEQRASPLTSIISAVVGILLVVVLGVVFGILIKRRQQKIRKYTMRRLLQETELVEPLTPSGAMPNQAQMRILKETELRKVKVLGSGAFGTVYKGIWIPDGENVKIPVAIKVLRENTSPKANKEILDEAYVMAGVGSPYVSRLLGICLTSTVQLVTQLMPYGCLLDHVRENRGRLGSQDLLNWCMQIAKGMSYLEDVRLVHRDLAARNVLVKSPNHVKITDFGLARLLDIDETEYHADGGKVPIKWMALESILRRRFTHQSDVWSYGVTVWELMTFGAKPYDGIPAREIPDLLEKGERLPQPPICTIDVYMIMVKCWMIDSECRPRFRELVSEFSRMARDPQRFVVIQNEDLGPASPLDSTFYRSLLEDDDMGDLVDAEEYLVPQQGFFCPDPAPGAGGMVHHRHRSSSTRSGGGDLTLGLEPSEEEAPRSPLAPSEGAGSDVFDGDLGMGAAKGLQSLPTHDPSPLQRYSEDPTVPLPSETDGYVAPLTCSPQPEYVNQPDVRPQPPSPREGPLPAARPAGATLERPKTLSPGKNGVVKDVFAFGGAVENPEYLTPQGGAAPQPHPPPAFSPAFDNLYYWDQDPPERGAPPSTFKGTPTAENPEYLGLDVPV

| Structure (SMILES) | thermal stability [1] | Purity (%) ([1]; detect time day 0) | Purity (%) ([1]; detect time day 10) | Purity (%) ([1]; detect time day 30) | light stability [2] | Purity (%) ([2]; detect time 0) | Purity (%) ([2]; detect time 10) | Purity (%) ([2]; detect time 30) | stability under the environment of high moisture [3] | Purity (%) ([3]; detect time 0) | Purity (%) ([3]; detect time 10) | Purity (%) ([3]; detect time 30) | food intake [6] | physical signs, appearance, behaviors, activities or shape of dejecta [6] | weight and weight increase of the rats [6] | relative tumor proliferation rate T/C [5] [%] | tumor inhibitory effects [5] | relative tumor proliferation rate T/C (human lung cancer Calu-3) [%] | relative tumor proliferation rate T/C (human lung cancer A549) [%] | also measured |
| --- | --- | --- | --- | --- | --- | --- | --- | --- | --- | --- | --- | --- | --- | --- | --- | --- | --- | --- | --- | --- |
| C=CC(=O)Nc1ccc2ncnc(Nc3ccc(OCc4cccc(F)c4)c(Cl)c3)c2c1.Cc1ccc(S(=O)(=O)O)cc1 [Form A, N-{4-[3-chloro-4-(3-fluoro-benzyloxy)phenylamino]-quinazolin-6-yl}-acrylamide p-Toluenesulfonate] | excellent | 98.64 | 98.64 | 98.64 | good | 98.64 | 98.16 | 97.24 | very stable | 98.64 | 98.62 | 98.62 | normal | no abnormality | basically similar to the solvent control group | – | – | – | – | Weight of animals (g) (without tumor) ([4]; 25 mg/kg ig, A431 nude mouse): 21.58 ± 2.18 g; Tumor inhibition rate % ([4]; 25 mg/kg ig): 29.99%; Weight of tumors (g) x ± SD ([4]; 25 mg/kg ig): 0.79 ± 0.20 g; Weight of animals (g) (without tumor) ([4]; 50 mg/kg ig, A431 nude mouse): 22.87 ± 3.96 g; Tumor inhibition rate % ([4]; 50 mg/kg ig): 38.67%; Weight of tumors (g) x ± SD ([4]; 50 mg/kg ig): 0.69 ± 0.17 g; Weight of animals (g) (without tumor) ([4]; 100 mg/kg ig, A431 nude mouse): 22.13 ± 1.83 g; Tumor inhibition rate % ([4]; 100 mg/kg ig): 43.63%; Weight of tumors (g) x ± SD ([4]; 100 mg/kg ig): 0.64 ± 0.23 g; inhibitory effect on the tumor ([4]; A431 nude mouse, ig, in words): significant inhibitory effect; tumor inhibitory effect ([5]; SKOV-3 nude mouse, ig once a day, in words): significant tumor inhibitory effect |
| C=CC(=O)Nc1ccc2ncnc(Nc3ccc(OCc4cccc(F)c4)c(Cl)c3)c2c1.Cc1ccc(S(=O)(=O)O)cc1 [Form C, N-{4-[3-chloro-4-(3-fluoro-benzyloxy)phenylamino]-quinazolin-6-yl}-acrylamide p-Toluenesulfonate] | good | 99.03 | 97.08 | 97.55 | good | 99.03 | 98.54 | 98.42 | comparatively stable | 99.03 | 98.27 | 98.08 | normal | no abnormality | basically similar to the solvent control group | 23.2 | significant tumor inhibitory effects | 39.4 | 58.7 | – |
| C=CC(=O)Nc1ccc2ncnc(Nc3ccc(OCc4cccc(F)c4)c(Cl)c3)c2c1.Cc1ccc(S(=O)(=O)O)cc1 [Form B, N-{4-[3-chloro-4-(3-fluoro-benzyloxy)phenylamino]-quinazolin-6-yl}-acrylamide p-Toluenesulfonate] | excellent | 99.26 | 99.21 | 99.11 | excellent | 99.26 | 99.26 | 99.24 | very stable | 99.26 | 99.25 | 99.24 | normal | no abnormality | basically similar to the solvent control group | 28.5 | significant tumor inhibitory effects | 35.1 | 56.3 | AUC0-t [7]: 978 ng·h/mL |
| C=CC(=O)Nc1ccc2ncnc(Nc3ccc(OCc4cccc(F)c4)c(Cl)c3)c2c1 [Compound of formula (I), N-{4-[3-chloro-4-(3-fluoro-benzyloxy)phenylamino]-quinazolin-6-yl}-acrylamide] | – | – | – | – | – | – | – | – | – | – | – | – | – | – | – | – | – | – | – | inhibiting the growth of A431 cells [8]: relatively good effect; inhibiting the growth of BT-474 cells [9]: relatively good effect; tumor-inhibiting effect on A431 implanted into a nude mouse [10]: significant tumor-inhibiting effect; inhibitory activity against Erb-B2 kinase (Erb-B2 kinase): excellent inhibitory activity |
